Laboratory results published in ChEMBL document CHEMBL1144471, “Structure-activity relationships of 2,N(6),5'-substituted adenosine derivatives with potent activity at the A2B adenosine receptor” (J Med Chem, 2007).

Tests used:
Adenosine receptor A1 = biological target: T1, Adenosine receptor A1 (Homo sapiens, UniProt P30542); experiment: Displacement of […] from human adenosine A1 receptor expressed in CHO cells; assay type: cell-based
T1 sequence (P30542 whole entry): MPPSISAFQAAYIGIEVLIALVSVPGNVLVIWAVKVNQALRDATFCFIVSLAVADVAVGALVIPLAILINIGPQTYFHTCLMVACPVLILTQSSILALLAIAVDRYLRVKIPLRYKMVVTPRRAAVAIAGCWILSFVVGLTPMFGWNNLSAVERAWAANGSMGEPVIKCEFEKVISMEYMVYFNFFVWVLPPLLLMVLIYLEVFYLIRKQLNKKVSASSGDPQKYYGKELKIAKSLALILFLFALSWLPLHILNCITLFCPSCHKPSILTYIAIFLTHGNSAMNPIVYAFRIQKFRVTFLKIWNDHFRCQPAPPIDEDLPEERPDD

Adenosine receptor A3 = biological target: T2, Adenosine receptor A3 (Homo sapiens, UniProt P0DMS8); experiment: Displacement of [125I]I-AB-MECA from human adenosine A3 receptor expressed in CHO cells; assay type: cell-based
T2 sequence (P0DMS8 whole entry): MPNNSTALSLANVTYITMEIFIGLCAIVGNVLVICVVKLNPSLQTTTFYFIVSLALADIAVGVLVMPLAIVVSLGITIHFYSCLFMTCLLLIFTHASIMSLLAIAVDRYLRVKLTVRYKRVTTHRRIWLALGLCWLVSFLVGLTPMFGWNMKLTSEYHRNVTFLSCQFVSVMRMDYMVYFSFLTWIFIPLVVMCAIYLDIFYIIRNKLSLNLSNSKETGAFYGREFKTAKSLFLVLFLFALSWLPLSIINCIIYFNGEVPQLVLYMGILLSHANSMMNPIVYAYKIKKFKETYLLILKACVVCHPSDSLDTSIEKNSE

Adenosine receptor A2b = biological target: T3, Adenosine receptor A2b (Homo sapiens, UniProt P29275); experiment: Agonist activity at human adenosine A2B receptor expressed in CHO cells assessed as stimulation of cAMP production
T3 sequence (P29275 whole entry): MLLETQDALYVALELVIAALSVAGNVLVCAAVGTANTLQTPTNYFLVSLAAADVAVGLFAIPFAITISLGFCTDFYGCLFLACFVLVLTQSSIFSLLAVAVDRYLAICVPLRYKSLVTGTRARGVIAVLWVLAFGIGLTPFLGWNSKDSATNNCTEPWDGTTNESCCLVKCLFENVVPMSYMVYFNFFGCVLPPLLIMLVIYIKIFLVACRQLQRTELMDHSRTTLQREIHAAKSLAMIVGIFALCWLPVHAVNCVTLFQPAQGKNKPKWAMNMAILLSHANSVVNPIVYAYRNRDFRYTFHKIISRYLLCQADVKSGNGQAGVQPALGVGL

[1] = biological target: T4, Adenosine receptor A3 (Homo sapiens) (UniProt P0DMS8); experiment: Maximum efficacy at human recombinant adenosine A3 receptor expressed in CHO cells assessed as inhibition of cAMP production at 10 uM relative to NECA; assay type: functional, cell-based
T4 sequence (whole entry): T2 sequence (P0DMS8 whole entry)

Adenosine receptor A2a [2] = biological target: T5, Adenosine receptor A2a (Homo sapiens, UniProt P29274); experiment: biochemical
[3] = biological target: T6, Adenosine receptor A1 (Homo sapiens) (UniProt P30542); experiment: Displacement of […] from human adenosine A1 receptor expressed in CHO cells at 10 uM; assay type: cell-based
T6 sequence (whole entry): T1 sequence (P30542 whole entry)

Adenosine receptor A2a [4] = biological target: T5, Adenosine receptor A2a; experiment: Displacement of [3H]CGS-21680 from human adenosine A2A receptor expressed in CHO cells at 10 uM; assay type: cell-based
[5] = biological target: T7, Adenosine receptor A2b (Homo sapiens) (UniProt P29275); experiment: Agonist activity at human adenosine A2B receptor expressed in CHO cells assessed as stimulation of cAMP production at 10 uM; assay type: functional, cell-based
T7 sequence (whole entry): T3 sequence (P29275 whole entry)

T5 sequence (P29274 whole entry): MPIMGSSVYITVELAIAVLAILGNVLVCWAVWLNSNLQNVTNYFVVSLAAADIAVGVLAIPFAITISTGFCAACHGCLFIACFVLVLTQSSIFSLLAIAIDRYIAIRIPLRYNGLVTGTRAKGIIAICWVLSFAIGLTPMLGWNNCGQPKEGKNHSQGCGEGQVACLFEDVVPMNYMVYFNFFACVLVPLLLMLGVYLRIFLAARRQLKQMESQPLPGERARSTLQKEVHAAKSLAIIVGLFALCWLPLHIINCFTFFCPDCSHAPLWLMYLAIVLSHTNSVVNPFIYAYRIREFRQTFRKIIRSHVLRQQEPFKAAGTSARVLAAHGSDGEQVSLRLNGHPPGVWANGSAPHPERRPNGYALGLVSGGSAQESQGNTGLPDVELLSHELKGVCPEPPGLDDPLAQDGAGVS

SMILES | Ki (Adenosine receptor A1) | Ki (Adenosine receptor A3) | EC50 (Adenosine receptor A2b) | Efficacy [1] | Ki (Adenosine receptor A2a [2]) | inhibition [3] | inhibition (Adenosine receptor A2a [4]) | Activity [5]
Nc1nc(OCCc2c[nH]c3ccccc23)nc2c1ncn2[C@@H]1O[C@H](CO)[C@@H](O)[C@H]1O | 148 nM | 232 nM | 299 nM | 17% | 45 nM | – | – | –
Nc1nc(OCCn2nnc3ccccc32)nc2c1ncn2[C@@H]1O[C@H](CO)[C@@H](O)[C@H]1O | – | 1920 nM | – | 13% | – | 41% | 46% | 0%
C[C@@H](CCOc1nc(N)c2ncn([C@@H]3O[C@H](CO)[C@@H](O)[C@H]3O)c2n1)c1ccccc1 | 1560 nM | 312 nM | – | 18% | 413 nM | – | – | 13%
Nc1nc(OCCCCc2ccccc2)nc2c1ncn2[C@@H]1O[C@H](CO)[C@@H](O)[C@H]1O | 2060 nM | 352 nM | – | 37% | 519 nM | – | – | 3%
COc1ccc2[nH]cc(CCOc3nc(N)c4ncn([C@@H]5O[C@H](CO)[C@@H](O)[C@H]5O)c4n3)c2c1 | 1820 nM | 360 nM | 1250 nM | -3% | 1400 nM | – | – | –
Nc1nc(OCCc2ccc(F)cc2)nc2c1ncn2[C@@H]1O[C@H](CO)[C@@H](O)[C@H]1O | 467 nM | 112 nM | – | 74% | 56.8 nM | – | – | 11%
Nc1nc(OCCc2c[nH]c3ccc(Cl)cc23)nc2c1ncn2[C@@H]1O[C@H](CO)[C@@H](O)[C@H]1O | 130 nM | 296 nM | 2180 nM | -4% | 390 nM | – | – | –
Nc1nc(OCCCc2ccccc2)nc2c1ncn2[C@@H]1O[C@H](CO)[C@@H](O)[C@H]1O | 960 nM | 66 nM | – | 42% | 500 nM | – | – | 29%
CCOc1nc(N)c2ncn([C@@H]3O[C@H](CO)[C@@H](O)[C@H]3O)c2n1 | 2640 nM | 568 nM | – | 99% | 360 nM | – | – | -1%
Nc1nc(OCCc2ccsc2)nc2c1ncn2[C@@H]1O[C@H](CO)[C@@H](O)[C@H]1O | 280 nM | 101 nM | – | 62% | 13.3 nM | – | – | 9%
Nc1nc(OCCc2ccccc2F)nc2c1ncn2[C@@H]1O[C@H](CO)[C@@H](O)[C@H]1O | 331 nM | 77.8 nM | – | 45% | 58.1 nM | – | – | 12%
COc1ccc2[nH]c(C)c(CCOc3nc(N)c4ncn([C@@H]5O[C@H](CO)[C@@H](O)[C@H]5O)c4n3)c2c1 | 579 nM | 599 nM | – | 13% | – | – | 64% | 48%
Nc1nc(OCCC2CCCCC2)nc2c1ncn2[C@@H]1O[C@H](CO)[C@@H](O)[C@H]1O | – | 578 nM | – | 52% | 579 nM | 36% | – | 36%
Nc1nc(OCCc2c[nH]c3cc(Cl)ccc23)nc2c1ncn2[C@@H]1O[C@H](CO)[C@@H](O)[C@H]1O | – | – | 216 nM | 2% | 29.3 nM | – | – | –
Nc1nc(OCCc2ccc3ccccc3c2)nc2c1ncn2[C@@H]1O[C@H](CO)[C@@H](O)[C@H]1O | 141 nM | 130 nM | 1440 nM | 45% | 16.1 nM | – | – | –
Nc1nc(OCCc2cc[nH]c2)nc2c1ncn2[C@@H]1O[C@H](CO)[C@@H](O)[C@H]1O | 218 nM | 104 nM | 2580 nM | 75% | 95 nM | – | – | –
Nc1nc(OCCc2cc3ccccc3[nH]2)nc2c1ncn2[C@@H]1O[C@H](CO)[C@@H](O)[C@H]1O | 197 nM | 513 nM | – | 37% | 373 nM | – | – | 49%
Nc1nc(OCCc2c[nH]c3ccc(I)cc23)nc2c1ncn2[C@@H]1O[C@H](CO)[C@@H](O)[C@H]1O | 350 nM | 110 nM | 1870 nM | -5% | 900 nM | – | – | –
CCNc1nc(OCCc2c[nH]c3ccccc23)nc2c1ncn2[C@@H]1O[C@H](CO)[C@@H](O)[C@H]1O | 640 nM | 30 nM | 3270 nM | 54% | – | – | 40% | –
Cc1ccc(S(=O)(=O)n2cc(CCOc3nc(NC(=N)N)c4ncn([C@@H]5O[C@H](CO)[C@@H](O)[C@H]5O)c4n3)c3ccccc32)cc1 | – | 457 nM | – | 24% | 344 nM | 52% | – | 42%
CCNC(=O)[C@H]1O[C@@H](n2cnc3c(N)nc(OCCc4c[nH]c5ccccc45)nc32)[C@H](O)[C@@H]1O | 190 nM | 110 nM | 989 nM | 102% | 250 nM | – | – | –

Results, then the molecule that gave them:

Ki (Adenosine receptor A1) | Ki (Adenosine receptor A3) | EC50 (Adenosine receptor A2b) | Efficacy [1] | Ki (Adenosine receptor A2a [2]) | inhibition [3] | inhibition (Adenosine receptor A2a [4]) | Activity [5] | SMILES
– | 8730 nM | – | -1% | – | 38% | 54% | 30% | Cc1ccc(S(=O)(=O)n2cc(CCOc3nc(N)c4ncn([C@@H]5O[C@H](CO)[C@@H](O)[C@H]5O)c4n3)c3cc(Br)ccc32)cc1
150 nM | 490 nM | 767 nM | -1% | 370 nM | – | – | – | Nc1nc(OCCc2c[nH]c3ccc(F)cc23)nc2c1ncn2[C@@H]1O[C@H](CO)[C@@H](O)[C@H]1O
312 nM | 119 nM | – | 50% | 69.3 nM | – | – | 64% | Nc1nc(OCCc2cccc(F)c2)nc2c1ncn2[C@@H]1O[C@H](CO)[C@@H](O)[C@H]1O
– | 622 nM | – | 30% | 2570 nM | 47% | – | 32% | Cc1ccc(S(=O)(=O)n2c(CCOc3nc(N)c4ncn([C@@H]5O[C@H](CO)[C@@H](O)[C@H]5O)c4n3)cc3ccccc32)cc1
– | – | – | 100% | – | – | – | – | CCNC(=O)[C@H]1O[C@@H](n2cnc3c(NC(=N)N)ncnc32)[C@H](O)[C@@H]1O
310 nM | 120 nM | 896 nM | 24% | 450 nM | – | – | – | Nc1nc(OCCc2c[nH]c3ccc(O)cc23)nc2c1ncn2[C@@H]1O[C@H](CO)[C@@H](O)[C@H]1O
221 nM | 54.2 nM | 3490 nM | 71% | 9.3 nM | – | – | – | Nc1nc(OCCc2ccccc2)nc2c1ncn2[C@@H]1O[C@H](CO)[C@@H](O)[C@H]1O
– | 2070 nM | – | 3% | 3870 nM | 18% | – | 0% | Nc1nc(OCCn2cnc3ccccc32)nc2c1ncn2[C@@H]1O[C@H](CO)[C@@H](O)[C@H]1O
174 nM | 93.3 nM | 1780 nM | 80% | 10.9 nM | – | – | – | Nc1nc(OCCc2cccs2)nc2c1ncn2[C@@H]1O[C@H](CO)[C@@H](O)[C@H]1O
358 nM | 234 nM | 365 nM | 1% | 502 nM | – | – | – | Nc1nc(OCCc2c[nH]c3ccc(Br)cc23)nc2c1ncn2[C@@H]1O[C@H](CO)[C@@H](O)[C@H]1O
443 nM | 260 nM | – | -5% | 39.7 nM | – | – | 16% | Nc1nc(OCCc2c[nH]c3cccc(Br)c23)nc2c1ncn2[C@@H]1O[C@H](CO)[C@@H](O)[C@H]1O
– | 1340 nM | – | 0% | 2670 nM | 39% | – | 43% | Cc1ccc(S(=O)(=O)n2cc(CCOc3nc(N)c4ncn([C@@H]5O[C@H](CO)[C@@H](O)[C@H]5O)c4n3)c3ccccc32)cc1
73.6 nM | 90 nM | – | 58% | 277 nM | – | – | 40% | N=C(N)Nc1nc(OCCc2c[nH]c3ccccc23)nc2c1ncn2[C@@H]1O[C@H](CO)[C@@H](O)[C@H]1O
210 nM | 142 nM | – | -8% | 252 nM | – | – | 43% | Nc1nc(OCCc2c[nH]c3c(Br)cccc23)nc2c1ncn2[C@@H]1O[C@H](CO)[C@@H](O)[C@H]1O
